Data from PMC11050599, “Novel Tetracyclic Azaphenothiazines with the Quinoline Ring as New Anticancer and Antibacterial Derivatives of Chlorpromazine” (International Journal of Molecular Sciences, 2024).
≈ marks a conversion by molar mass, not a printed value. Where two headings read alike, the source gives them in different places.

Tests used:
[1] = test system: HaCaT (immortalized human keratinocytes); assay: MTT assay, HaCaT normal cells; assay type: cell-based; conditions: Homo sapiens, HaCaT, MTT, 72 h, normal cells
Description: (§1) The human cell lines, such as A549 (lung cancer), MDA-MB-231 (breast cancer), MiaPaca-2 (pancreatic cancer), PC3 (metastatic prostate cancer), HCT-116 (colon carcinoma), and HaCaT (immortalized keratinocytes), were sourced from the American Type Culture Collection (ATCC) in Rockville, USA. Culturing conditions varied as follows: HCT116 cells were cultured in MEM (ThermoSci, Waltham, MA, USA), A549, MDA-MB-231, MiaPaca, HaCaT cells in DMEM High Glucose and PC3 cells were cultured in RPMI (Biowest SAS, Nuaillé, France). The growth medium consisted of 10% fetal bovine serum (FBS, Sigma-Aldrich, St. Louis, MO, USA), 20 mM HEPES (Biowest, Nuaillé, France), and antibiotics (100 U/mL of penicillin and 100 μg/mL of streptomycin) from Gibco, Grand Island, NY, USA. […] These compounds were added to 96-well plates containing study cells (1 × 10^4 cells per well) and incubated for 72 h. […] Cell absorbance results were incorporated into the formula for calculating the relative MTT level (%), enabling the assessment of cell viability following exposure to the test compounds. The cell viability percentage represents the MTT reduction in cells treated with the test compounds compared to the control sample, where only the medium was added to the cells.

PC3 (prostate cancer) = assay: MTT assay, PC3 cells; assay type: cell-based, human; conditions: for IC50: Homo sapiens, PC-3, MTT, 72 h, read-out: IC50 PC3; for SI PC3: SI = IC50 for normal cell line (HaCaT)/IC50 cancer cell line
Description: as §1

[2] = test system: S. epidermidis ATCC 12228; assay: MIC broth microdilution; assay type: cell-based; conditions: Staphylococcus epidermidis, ATCC12228; 19 h, 35 °C; read-out: MIC S. epidermidis ATCC 12228
Excerpt: (§2) To evaluate the antibacterial effectiveness of chloroquinobenzothiazine derivatives, various bacterial strains from international microbe collections such as the American Type Culture Collection (ATCC) and the National Collection of Type Culture (NCTC) were examined, alongside a panel of clinical rods. This included two Gram-negative organisms, E. coli ATCC 25922 and P. aeruginosa ATCC 15442, and a series of six Gram-positive strains: S. aureus NCTC 4163; S. aureus ATCC 29213, 25923, and 6538; and S. epidermidis ATCC 12228 and 35984. […] The MIC was determined using the two-fold serial broth microdilution method in 96-well microtitration plates containing Mueller-Hinton II broth medium (Becton Dickinson, Franklin Lakes, NJ, USA). The final inoculum for all tested bacteria was adjusted to […] (colony-forming units per milliliter). The stock solution of the tested compounds was prepared in dimethyl sulfoxide (DMSO) and diluted to a maximum of 1% solvent content with a sterile medium.

S. aureus NCTC 4163 = assay: MIC broth microdilution; assay type: cell-based; conditions: Staphylococcus aureus, NCTC4163; 19 h, 35 °C; read-out: MIC S. aureus NCTC 4163
Excerpt: as §2

[3] = test system: S. epidermidis ATCC 35984; assay: MIC broth microdilution; assay type: cell-based; conditions: Staphylococcus epidermidis, ATCC35984; 19 h, 35 °C; read-out: MIC S. epidermidis ATCC 35984
Excerpt: as §2

P. aeruginosa ATCC 15442 = assay: MIC broth microdilution; assay type: cell-based; conditions: Pseudomonas aeruginosa, ATCC15442; 19 h, 35 °C; read-out: MIC P. aeruginosa ATCC 15442
Excerpt: as §2

S. aureus ATCC 25923 = assay: MIC broth microdilution; assay type: cell-based; conditions: Staphylococcus aureus, ATCC25923; 19 h, 35 °C; read-out: MIC S. aureus ATCC 25923
Excerpt: as §2

E. coli ATCC 25922 = assay: MIC broth microdilution; assay type: cell-based; conditions: Escherichia coli, ATCC25922; 19 h, 35 °C; read-out: MIC E. coli ATCC 25922
Excerpt: as §2

S. aureus ATCC 6538 = assay: MIC broth microdilution; assay type: cell-based; conditions: Staphylococcus aureus, ATCC6538; 19 h, 35 °C; read-out: MIC S. aureus ATCC 6538
Excerpt: as §2

S. aureus ATCC 29213 = assay: MIC broth microdilution; assay type: cell-based; conditions: Staphylococcus aureus, ATCC29213; 19 h, 35 °C; read-out: MIC S. aureus ATCC 29213
Excerpt: as §2

[4] = test system: MDA-MB-231 (breast cancer); assay: MTT assay, MDA-MB-231 cells; assay type: cell-based, human; conditions: for IC50: Homo sapiens, MDA-MB-231, MTT, 72 h, MDA-MB231, read-out: IC50 MDA; for SI MDA: SI = IC50 for normal cell line (HaCaT)/IC50 cancer cell line
Description: as §1

A549 (lung cancer) = assay: MTT assay, A549 cells; assay type: cell-based, human; conditions: for IC50: Homo sapiens, A549, MTT, 72 h, mean SD, read-out: IC50 A549; for SI A549: SI = IC50 for normal cell line (HaCaT)/IC50 cancer cell line
Description: as §1

HCT116 (colon cancer) = assay: MTT assay, HCT116 cells; assay type: cell-based, human; conditions: for IC50: Homo sapiens, HCT-116, MTT, 72 h, read-out: IC50 HCT116; for SI HCT116: SI = IC50 for normal cell line (HaCaT)/IC50 cancer cell line
Description: as §1

[5] = test system: MiaPaCa-2 (pancreas cancer); assay: MTT assay, MiaPaCa-2 cells; assay type: cell-based, human; conditions: for IC50: Homo sapiens, MIA PaCa-2, MTT, 72 h, read-out: IC50 MiaPaCa-2; for SI MiaPaCa-2: SI = IC50 for normal cell line (HaCaT)/IC50 cancer cell line
Description: as §1

HCT116 cells [6] = assay: Annexin V-FITC/PI apoptosis flow cytometry, HCT116; assay type: cell-based, human
Description: (§3) To analyze the number of cells in early apoptosis, late apoptosis, or necrosis, A549, MiaPaca-2, and HCT-116 cell lines were cultured in 6-well plates with a seeding density of 1 × 10^5 cells per well. These cells were then treated with selected compounds (4, 5, and 8) at their respective IC50 concentrations and incubated for 72 h. Subsequently, a commercially available kit, the FITC: Annexin V Apoptosis Detection Kit I from BD Biosciences Pharmingen in San Jose, CA, USA, was utilized to assess apoptosis. After 72 h the cells were harvested, washed, and labeled with Annexin V-FITC and propidium iodide (PI) following the manufacturer’s protocol (Becton Dickinson), as previously described. The stained cells were analyzed by flow cytometry. The cells were identified as early apoptotic (Annexin V+/PI−) or late apoptotic/necrotic (Annexin V+/PI+).

HCT116 cells [7] = assay: Cell cycle analysis by flow cytometry, HCT116; assay type: cell-based, human; conditions: IC50, 24 h, compared to the control
Description: In brief, cells were seeded at a density of 1 × 10^5 cells/well on a six-well plate and allowed to adhere for 24 h. […] Both population cells (the attached and detached) were collected and centrifuged at 400× g for 5 min at 4 °C. After centrifugation, the cells were washed twice with 0.9% NaCl and subsequently fixed in 500 μL of 70 % cold ethanol overnight.
Before analysis, the fixed cells underwent another centrifugation step at 850× g for 5 min at 4 °C and were washed with PBS. Following the washes, the cells were incubated with 50 μL of RNase (100 μg/mL) and 200 μL of propidium iodide (PI) (50 μg/mL) at 37 °C for 30 min in the dark. Finally, 100 μL of PBS was added to each sample. Flow cytometry (Becton Dickinson FACS Verse, Franklin Lakes, NJ, USA) was then used to analyze the cell cycle distribution, identifying cells in various stages including sub-G1, G0/G1, S, and G2/M phases. Each assay was performed in quadruplicate.

A549 cells = assay: Annexin V-FITC/PI apoptosis flow cytometry, A549; assay type: cell-based, human
Description: as §3

[8] = representative dot plot, Figure 4C, IC50, 72 h
[9] = representative dot plot, Figure 4A, IC50, 72 h

Row | IC50 (PC3 (prostate cancer)) [µM] | MIC [2] [µg/mL] | MIC (S. aureus NCTC 4163) [µg/mL] | MIC [3] [µg/mL] | MIC (P. aeruginosa ATCC 15442) [µg/mL] | MIC (S. aureus ATCC 25923) [µg/mL] | MIC (E. coli ATCC 25922) [µg/mL] | MIC (S. aureus ATCC 6538) [µg/mL] | MIC (S. aureus ATCC 29213) [µg/mL] | IC50 [4] [µM] | IC50 (A549 (lung cancer)) [µM] | IC50 (HCT116 (colon cancer)) [µM] | IC50 [5] [µM] | SMILES | IC50 ([1]; read-out: IC50 HaCaT (Table 3)) [µM] | SI PC3 (PC3 (prostate cancer)) | SI MDA [4] | SI A549 (A549 (lung cancer)) | SI HCT116 (HCT116 (colon cancer)) | SI MiaPaCa-2 [5] | other results
1 | 77.1 ± 9.4 | 16 (≈ 41.9 µM) | 16 (≈ 41.9 µM) | 16 (≈ 41.9 µM) | > 256 | 16 (≈ 41.9 µM) | > 256 | 16 (≈ 41.9 µM) | 16 (≈ 41.9 µM) | 77.1 ± 1.6 | 17.4 ± 4.1 | 17.5 ± 1.4 | 57.4 ± 9.6 | Clc1ccc2c(c1)N(CCN1CCCC1)c1nc3ccccc3cc1S2 [Compound 9, 8-Chloro-6-(2-(pyrrolidin-1-yl)ethyl)-quino[3,2-b]benzo[1,4]thiazine] | > 100 | 1.3 | 1.3 | 5.7 | 5.7 | 1.7 | 
2 | > 100 | > 256 | > 256 | > 256 | > 256 | > 256 | > 256 | > 256 | > 256 | > 100 | 30.5 ± 8.3 | 0.7 ± 0.08 | 98.4 ± 5.6 | CS(=O)(=O)NCCCCN1c2cc(Cl)ccc2Sc2cc3ccccc3nc21 [Compound 23, N-(4-(8-Chloroquino[3,2-b]benzo[1,4]thiazin-6-yl)butyl)methanesulfonamide] | > 100 | 1.0 |  | 3.3 | 143 | 1.0 | cells in late apoptosis/necrosis, HCT116 (HCT116 cells [6]; compound at IC50, 72 h): 93%; HCT-116: Alive (HCT116 cells [6]; [8]): 3.42%; HCT-116: Early Apoptotic (HCT116 cells [6]; [8]): 0.76%; HCT-116: Necrotic (HCT116 cells [6]; [8]): 3.85%; HCT-116: Necrotic/Late Apoptotic (HCT116 cells [6]; [8]): 91.97%; increase in the cell amount at the sub-G1 phase, HCT116 (HCT116 cells [7]): 11 fold; increase in the number of cells in the G2/M phase, HCT116 (HCT116 cells [7]): approximately 1.3 fold; increase in the number of cells in the S phase, HCT116 (HCT116 cells [7]): approximately 2 fold
3 | 48.6 ± 4.7 | > 256 | > 256 | > 256 | > 256 | > 256 | > 256 | > 256 | > 256 | > 100 | 9.45 ± 1.3 | > 100 | > 100 | Cc1ccc(S(=O)(=O)NCCCCN2c3cc(Cl)ccc3Sc3cc4ccccc4nc32)cc1 [Compound 25, N-(4-(8-Chloroquino[3,2-b]benzo[1,4]thiazin-6-yl)butyl)-4-methylbenzenesulfonamide] | < 100 | 2.0 | 1.0 |  | 1.0 | 1.0 | IC50 ([1]; read-out: IC50 HaCaT (Table 4)): > 100 µM; cells in late apoptosis or necrosis, A549 (A549 cells; compound at IC50, 72 h): 82%; A549: Alive (A549 cells; [9]): 16.32%; A549: Early Apoptotic (A549 cells; [9]): 0.60%; A549: Necrotic (A549 cells; [9]): 32.75%; A549: Necrotic/Late Apoptotic (A549 cells; [9]): 50.34%
